Reference: patent US20110014285A1, “N-ACETYL CYSTEINE COMPOSITIONS AND METHODS TO IMPROVE THE THERAPEUTIC EFFICACY OF ACETAMINOPHEN” (priority 2009, published 2011)

Tests used:
[1] = NAC thiol/disulfide pair; Noszal et al. (2000); cited from earlier work
fever = test: Control of fever refractory to acetaminophen in a pediatric patient; format: in vivo, human; conditions: standard maximum daily dose of acetaminophen
Text: A pediatric patient receives a standard maximum daily dose of acetaminophen to control a fever, but the acetaminophen is ineffective. The patient receives the same standard maximum daily dose of acetaminophen in the form of an acetaminophen-N-acetylcysteine composition.

[2] = in vivo; cited from earlier work
dogs = conditions: cited from earlier work
humans = conditions: cited from earlier work
felines = felines (cat family); cited from earlier work
[3] = effects counter to those reported for NAC; Samstrand et al (1999); cited from earlier work

For `CC(=O)N[C@@H](CS)C(=O)O` [NAC, N-acetylcysteine], the half-cell potential [1] is given as “about +63 mV”.
For `CC(=O)Nc1ccc(O)cc1` [acetaminophen, N-acetyl-para-aminophenol], the control of fever (fever) is listed as “ineffective”, the binding to protein [2] is listed as “only slightly” and the volume of distribution [2] is listed as 0.9 to 1.0 L/kg. The “dose at which toxicity is documented” value (dogs) was > 40 mg/kg, the “dose at which toxicity is documented” value (humans) was > 140 mg/kg and the “dose at which toxicity and death were demonstrated” value (felines) was 5 to 10 mg/kg.
For `CC(=O)N[C@@H](CSSC[C@H](NC(C)=O)C(=O)O)C(=O)O` [oxidized form of NAC], the “bioactive dose relative to NAC” value [3] is given as 10-100 fold less than NAC.
